{"source": "patent US6423320B1", "about": "“Inhibitor of immunoglobulin E antibody production” (Tayca Corporation, priority 1997, dated 2002)", "origin": "cited, not measured here", "system": "IgE antibody production", "settings": "Bio Industry, Vol. 13, No. 12, pp. 42-50 (1996)", "note": "Structures can show the parent of a compound that is named as a salt."}
{"smiles": "CCOCC(O)COc1ccc(NC(=O)CC[S+](C)C)cc1", "note": "(stereo not shown) [IPD, Suplatast Tosylate]", "values": [{"measurement": "Inhibitory action on the production of IgE antibody", "result": "extremely weak inhibitory action"}]}
